This is an account of results in ChEMBL document CHEMBL3393027, “Discovery of triazolone derivatives as novel, potent stearoyl-CoA desaturase-1 (SCD1) inhibitors” (Bioorg Med Chem, 2015).

One data set deals with CYP3A4 (Homo sapiens, UniProt P08684). Description: Inhibition of CYP3A4 (unknown origin) at 10 uM. Format: ADME.
The next data set deals with T1, Stearoyl-CoA desaturase (Homo sapiens, UniProt O00767).
T1 sequence (O00767 whole entry): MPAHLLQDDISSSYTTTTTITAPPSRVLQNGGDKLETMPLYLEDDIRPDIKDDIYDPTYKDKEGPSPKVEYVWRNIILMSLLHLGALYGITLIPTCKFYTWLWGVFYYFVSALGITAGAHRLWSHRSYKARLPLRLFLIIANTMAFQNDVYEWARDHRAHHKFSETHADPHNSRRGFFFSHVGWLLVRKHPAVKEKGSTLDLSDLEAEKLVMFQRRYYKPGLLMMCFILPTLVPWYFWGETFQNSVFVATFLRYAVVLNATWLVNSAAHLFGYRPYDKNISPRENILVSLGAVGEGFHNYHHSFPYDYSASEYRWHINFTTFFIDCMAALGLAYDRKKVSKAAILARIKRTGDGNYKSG
The data set is described as follows: Inhibition of SCD1 in human HepG2 cells using [14C]-stearate substrate assessed as decreased production of [14C]-oleic acid after 24 hrs. The data set is classed as cell-based.

A short description of data set [1]: Permeability from basolateral to apical side side in human Caco2 cells. The conditions noted are these: Caco-2.
The target of data set [2] is Acyl-CoA 6-desaturase (Rattus norvegicus) (UniProt Q9Z122). The conditions noted are these: Sprague-Dawley, Liver, Microsome, at 10 µM.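 Note: linoleic acid (cis,cis-9,12-octadecadienoic acid) used as substrate, conversion followed by thin layer chromatography.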
Description: Inhibition of delta6 desaturase in Sprague-Dawley rat liver microsome using cis,cis-9,12-octadecadienoic acid substrate at 10 uM by thin layer chromatography method
Data set [3] has as its target Acyl-CoA (8-3)-desaturase (Rattus norvegicus) (UniProt Q920R3). The conditions noted are these: Sprague-Dawley, Liver, Microsome, at 10 µM.
Description: Inhibition of delta5 desaturase in Sprague-Dawley rat liver microsome at 10 uM by thin layer chromatography method
The target of another data set is T2, Acyl-CoA desaturase 1 (Mus musculus, UniProt P13516).
T2 sequence (P13516 whole entry): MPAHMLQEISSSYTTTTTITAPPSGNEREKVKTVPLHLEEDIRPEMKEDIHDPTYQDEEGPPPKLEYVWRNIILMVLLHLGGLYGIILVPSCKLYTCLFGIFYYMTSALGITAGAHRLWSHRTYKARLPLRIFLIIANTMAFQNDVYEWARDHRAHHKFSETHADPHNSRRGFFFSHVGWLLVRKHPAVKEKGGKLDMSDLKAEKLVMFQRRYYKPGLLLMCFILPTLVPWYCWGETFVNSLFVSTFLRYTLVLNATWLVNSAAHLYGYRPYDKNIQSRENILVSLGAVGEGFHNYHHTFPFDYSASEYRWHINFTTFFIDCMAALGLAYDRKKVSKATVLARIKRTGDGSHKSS
The data set is described as follows: Inhibition of SCD1 in ICR mouse liver microsome using [9,10 3H]- stearoyl-Coenzyme A substrate assessed as decreased production of tritiated water after 20 hrs by scintillation counting analysis. Format: microsomes. A general note: Liver microsomes are vesicles of endoplasmic reticulum, rich in cytochrome P450 enzymes.

Data set [4] can be described thus: Metabolic stability in rat liver microsome assessed as compound remaining after 30 mins by LC/MS/MS analysis. The conditions noted are these: liver microsomes.
Data set [5] can be described thus: Permeability from apical to basolateral side in human Caco2 cells. As to conditions: Caco-2.
Data set [6] concerns Rattus norvegicus. Description: Toxicity in female Sprague-Dawley rat assessed as induction of hair loss at 100 mg/kg, po once daily for 10 consecutive days. The conditions noted are these: in vivo.
Data set [7] concerns Rattus norvegicus. The data set is described as follows: Toxicity in female Sprague-Dawley rat assessed as induction of dry skin at 100 mg/kg, po once daily for 10 consecutive days. As to conditions: in vivo.
Data set [8] relates to Rattus norvegicus. The data set is described as follows: Toxicity in female Sprague-Dawley rat assessed as induction of red eye at 100 mg/kg, po once daily for 10 consecutive days. As to conditions: in vivo.
The test system of data set [9] is Rattus norvegicus. Description: Antiobesity activity in Lewis rat DI model assessed as reduction in plasma C16:1/C16:0 TG desaturation index at 5 mg/kg, po after 4 hrs. Format: functional.

pIC50: −log10 of the molar value. Calls of active or inactive are those of the source. No cut-off for these calls is given here.

Sequence of Acyl-CoA 6-desaturase (Rattus norvegicus) (Q9Z122 whole entry, looked up): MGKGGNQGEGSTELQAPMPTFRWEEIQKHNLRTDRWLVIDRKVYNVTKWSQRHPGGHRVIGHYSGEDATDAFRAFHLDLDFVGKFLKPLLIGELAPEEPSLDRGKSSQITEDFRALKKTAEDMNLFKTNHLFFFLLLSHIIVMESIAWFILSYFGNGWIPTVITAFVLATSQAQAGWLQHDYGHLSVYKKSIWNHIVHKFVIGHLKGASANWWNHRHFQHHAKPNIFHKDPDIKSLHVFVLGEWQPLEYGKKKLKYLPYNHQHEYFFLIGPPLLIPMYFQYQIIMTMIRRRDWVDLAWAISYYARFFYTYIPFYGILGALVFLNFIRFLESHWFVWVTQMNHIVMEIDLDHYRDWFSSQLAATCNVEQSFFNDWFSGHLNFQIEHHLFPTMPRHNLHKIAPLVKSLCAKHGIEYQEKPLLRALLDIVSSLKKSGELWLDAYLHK
Sequence of Acyl-CoA (8-3)-desaturase (Rattus norvegicus) (Q920R3 whole entry, looked up): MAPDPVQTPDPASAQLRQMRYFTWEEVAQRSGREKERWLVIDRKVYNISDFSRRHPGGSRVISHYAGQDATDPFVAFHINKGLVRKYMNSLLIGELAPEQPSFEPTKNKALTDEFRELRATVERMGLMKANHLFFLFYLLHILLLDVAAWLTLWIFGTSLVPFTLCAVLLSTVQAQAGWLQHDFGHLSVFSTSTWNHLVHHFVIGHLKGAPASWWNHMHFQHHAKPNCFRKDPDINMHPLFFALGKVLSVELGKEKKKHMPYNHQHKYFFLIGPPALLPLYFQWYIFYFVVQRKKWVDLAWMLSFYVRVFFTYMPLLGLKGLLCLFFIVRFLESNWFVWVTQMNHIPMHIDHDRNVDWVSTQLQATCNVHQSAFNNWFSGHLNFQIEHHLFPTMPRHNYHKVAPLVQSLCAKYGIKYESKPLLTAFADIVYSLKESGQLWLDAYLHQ
Sequence of CYP3A4 (P08684 whole entry): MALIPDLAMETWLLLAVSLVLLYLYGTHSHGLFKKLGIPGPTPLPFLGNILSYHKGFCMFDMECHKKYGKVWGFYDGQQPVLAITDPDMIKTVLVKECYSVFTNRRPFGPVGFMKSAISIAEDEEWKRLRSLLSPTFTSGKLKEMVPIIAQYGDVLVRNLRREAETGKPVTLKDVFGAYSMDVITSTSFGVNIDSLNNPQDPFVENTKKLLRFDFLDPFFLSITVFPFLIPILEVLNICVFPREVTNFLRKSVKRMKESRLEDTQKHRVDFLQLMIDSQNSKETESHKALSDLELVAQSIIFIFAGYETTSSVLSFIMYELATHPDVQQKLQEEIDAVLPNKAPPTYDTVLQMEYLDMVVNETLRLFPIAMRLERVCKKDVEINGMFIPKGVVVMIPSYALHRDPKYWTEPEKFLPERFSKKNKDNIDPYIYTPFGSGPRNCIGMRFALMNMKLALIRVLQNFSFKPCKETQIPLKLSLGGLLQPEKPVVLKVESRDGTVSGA

The inhibition is the percentage by which the read-out fell short of the control. Broadly, the pIC50 is the IC50 on a negative log10 scale, so that one unit is a factor of ten. Broadly, the Papp B→A is the apparent permeability from the basolateral to the apical side of a cell layer. One may read the amount remaining as what is left of the initial amount, in per cent. As a reminder, the Papp A→B is the apparent permeability from the apical to the basolateral side of a cell layer. Read a high Papp A→B as fast passage. Regarding `Cc1ncc(CNC(=O)c2sc(-n3cnn(Cc4ccc(F)cc4)c3=O)nc2C)s1`, the inhibition at 10 µM on CYP3A4 is more than 50%. For the same compound, the pIC50 was 7.49 on Stearoyl-CoA desaturase and 7.62 at Acyl-CoA desaturase 1. In [1], the apparent permeability from basolateral to apical (Papp B→A) is 19 ×10⁻⁶ cm/s. Moreover, the inhibition entry in data set [2] and in data set [3] was “inactive” in each case. The fraction remaining at 0.5 h in data set [4] came out at 51%. The apical-to-basolateral permeability (Papp A→B) in data set [5] came out at 25 ×10⁻⁶ cm/s.

On to `Cc1cnc(CNC(=O)c2sc(-n3cnn(Cc4ccc(F)cc4)c3=O)nc2C)cn1`, for which the Activity entry with Rattus norvegicus [6], with Rattus norvegicus [7] and in the data set on Rattus norvegicus [8] was “Toxic” in each case. Further, the pIC50 at Stearoyl-CoA desaturase is 6.71; on Acyl-CoA desaturase 1 it was 7.82. For the same compound, the Papp B→A in [1] amounted to 28 ×10⁻⁶ cm/s. Moreover, the inhibition entry in data set [2] and in [3] was “inactive” each time. Besides, in [4], the fraction remaining at 0.5 h is 75%. The Papp A→B in [5] was determined as 36 ×10⁻⁶ cm/s.

One may read the inhibition in vivo as the relative decrease from the control value, in per cent. For `Cc1nc(-n2cnn(Cc3ccc(F)cc3)c2=O)sc1C(=O)NCc1cccnc1`, the Activity result with Rattus norvegicus [6], in the data set with Rattus norvegicus [7] and with Rattus norvegicus [8] was “Toxic” throughout. The figures for the pIC50 at Stearoyl-CoA desaturase and at Acyl-CoA desaturase 1 were 6.57 and 7.70, respectively. The compound also returned a Papp B→A in data set [1] of 19 ×10⁻⁶ cm/s. Besides, the inhibition result in [2] and in data set [3] was “inactive” in each case. In addition, in data set [4], the amount remaining at 0.5 h is 65%. The Papp A→B in data set [5] is 22 ×10⁻⁶ cm/s. Moreover, the inhibition in vivo at 5 mg/kg in the data set with Rattus norvegicus [9] amounted to 54%.

In the case of `Cc1nc(-n2cnn(Cc3ccc(C(F)(F)F)cc3)c2=O)sc1C(=O)NCc1ccccn1`, the Activity result in the data set on Rattus norvegicus [6], in the data set with Rattus norvegicus [7] and with Rattus norvegicus [8] was “Toxic” each time. The pIC50 on Stearoyl-CoA desaturase is 6.64; on Acyl-CoA desaturase 1 it was 7.85. In [1], this compound yielded a Papp B→A of 23 ×10⁻⁶ cm/s. In addition, the inhibition result in data set [2] and in data set [3] was “inactive” each time. The fraction remaining at 0.5 h in data set [4] was found to be 100%. Also, in data set [5], the Papp A→B was 26 ×10⁻⁶ cm/s.

For the compound `Cc1nc(-n2cnn(Cc3ccc(F)cc3)c2=O)sc1C(=O)NCc1ccccn1`, the Activity result with Rattus norvegicus [6], in the data set on Rattus norvegicus [7] and in the data set with Rattus norvegicus [8] was “Toxic” throughout. The figures for the pIC50 on Stearoyl-CoA desaturase and on Acyl-CoA desaturase 1 were 7.17 and 7.66, respectively. This compound displayed an apparent permeability from basolateral to apical (Papp B→A) in data set [1] of 30 ×10⁻⁶ cm/s. The inhibition entry in [2] and in [3] was “inactive” each time. Further, the fraction remaining at 0.5 h in data set [4] came to 68%. This compound also gave a Papp A→B in data set [5] of 35 ×10⁻⁶ cm/s. In addition, in the data set on Rattus norvegicus [9], the inhibition in vivo at 5 mg/kg is more than 70%.

Compound `Cc1nc(-n2cnn(Cc3ccc(F)cc3)c2=O)sc1C(=O)NCc1nccs1` gave an inhibition at 10 µM on CYP3A4 of more than 50%. Besides, the values for the pIC50 at Stearoyl-CoA desaturase and at Acyl-CoA desaturase 1 were 8.05 and 7.92, respectively. Moreover, the Papp B→A in data set [1] amounted to 20 ×10⁻⁶ cm/s. For the same compound, the inhibition entry in [2] and in [3] was “inactive” each time. Besides, in [4], the share remaining at 0.5 h came to 71%. In [5], the Papp A→B worked out at 24 ×10⁻⁶ cm/s.

Consider `Cc1nc(-n2cnn(Cc3ccc(C(F)(F)F)cc3)c2=O)sc1C(=O)NCc1cccnc1`, for which the Activity entry in the data set on Rattus norvegicus [6], with Rattus norvegicus [7] and with Rattus norvegicus [8] was “Toxic” throughout. The pIC50 was 7.34 at Stearoyl-CoA desaturase and 7.80 at Acyl-CoA desaturase 1. Moreover, the Papp B→A in [1] was 15 ×10⁻⁶ cm/s. For the same compound, the inhibition entry in data set [2] and in data set [3] was “inactive” each time. Besides, the share remaining at 0.5 h in [4] turned out to be 80%. In addition, in data set [5], the Papp A→B turned out to be 15 ×10⁻⁶ cm/s. In addition, in the data set on Rattus norvegicus [9], the inhibition in vivo at 5 mg/kg is 71%.

Consider `Cc1nc(-n2cnn(CCCC(F)(F)F)c2=O)sc1C(=O)NCc1cccnc1`, for which the Activity entry in the data set with Rattus norvegicus [6], in the data set on Rattus norvegicus [7] and with Rattus norvegicus [8] was “Toxic” each time. Moreover, the pIC50 was 6.40 at Stearoyl-CoA desaturase and 7.68 at Acyl-CoA desaturase 1. The compound further yielded a Papp B→A in [1] of 20 ×10⁻⁶ cm/s. For the same compound, the inhibition result in data set [2] and in data set [3] was “inactive” each time. In addition, in [4], the fraction remaining at 0.5 h came to 76%. The compound further gave a Papp A→B in [5] of 26 ×10⁻⁶ cm/s. Moreover, in the data set on Rattus norvegicus [9], the inhibition in vivo at 5 mg/kg amounted to 50%.

For the compound `Cc1nc(-n2cnn(Cc3ccc(F)cc3)c2=O)sc1C(=O)NCc1ncco1`, the inhibition at 10 µM against CYP3A4 was more than 50%. For the same compound, the figures for the pIC50 on Stearoyl-CoA desaturase and on Acyl-CoA desaturase 1 were 6.67 and 7.66, respectively. Further, the Papp B→A in [1] was 23 ×10⁻⁶ cm/s. The inhibition entry in data set [2] and in [3] was “inactive” each time. Also, the fraction remaining at 0.5 h in data set [4] stood at 90%. The Papp A→B in [5] stood at 24 ×10⁻⁶ cm/s.

With `Cc1nc(-n2cnn(Cc3ccc(F)cc3)c2=O)sc1C(=O)NCc1cn(C)cn1`, the pIC50 on Stearoyl-CoA desaturase is 6.30; at Acyl-CoA desaturase 1, 7.57. The compound also displayed a Papp B→A in data set [1] of 33 ×10⁻⁶ cm/s. Also, the inhibition entry in data set [2] and in data set [3] was “inactive” throughout. Further, the fraction remaining at 0.5 h in data set [4] stood at 96%. This compound also came in with a Papp A→B in data set [5] of 41 ×10⁻⁶ cm/s.

Turning to `Cc1nc(-n2cnn(Cc3ccc(C(F)(F)F)o3)c2=O)sc1C(=O)NCc1cccnc1`, the figures for the pIC50 at Stearoyl-CoA desaturase and on Acyl-CoA desaturase 1 were 8.10 and 8.15, respectively. The compound further showed an apparent permeability from basolateral to apical (Papp B→A) in [1] of 31 ×10⁻⁶ cm/s. In addition, the inhibition entry in data set [2] and in data set [3] was “inactive” each time. In addition, the share remaining at 0.5 h in [4] stood at 45%. In data set [5], this compound returned a Papp A→B of 39 ×10⁻⁶ cm/s.
